Data as given in ChEMBL document CHEMBL1201862, “PubChem BioAssay data set” (2004).
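Briefly, cells in 96-well plates were exposed to five compound concentrations for 48 h, and endpoints were estimated by linear interpolation. Abbreviation: GI50, concentration required for 50% inhibition of growth.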 Active and inactive are the calls of the source. No stated cut-off is given here; in the data, active = GI50 up to about 1.1 µM and inactive = higher.

What was measured:
Assay in all cases: NCI tumour cell line growth inhibition, 48 h
786-0 = system: 786-0
BT-549 = system: BT-549
HL-60 = system: HL-60
HOP-62 = system: HOP-62
HT-29 = system: HT-29
Hs-578T = system: Hs-578T
KM12 = system: KM12
MCF7 = system: MCF7
MDA-MB-231 = system: MDA-MB-231
MOLT-4 = system: MOLT-4
Malme-3M = system: Malme-3M
NCI-H23 = system: NCI-H23
NCI-H522 = system: NCI-H522
SK-MEL-5 = system: SK-MEL-5
SK-OV-3 = system: SK-OV-3
SNB-19 = system: SNB-19
SNB-75 = system: SNB-75
TK-10 = system: TK-10
U-251 = system: U-251
UO-31 = system: UO-31

Measured: GI50

CCCCCCCCCCNC(=O)CCC(NC(=O)c1ccc(N(C)Cc2cnc3nc(N)nc(N)c3n2)cc1)C(=O)NCCCCCCCCCC (stereo not given)
inactive: 786-0 3.05 µM | BT-549 9.27 µM | HL-60 3.4 µM | HOP-62 31.8 µM | HT-29 10.5 µM | Hs-578T 3.09 µM | KM12 4.89 µM | MCF7 4.06 µM | MDA-MB-231 3.57 µM | MOLT-4 2.99 µM | Malme-3M 12.4 µM | NCI-H23 14.7 µM | NCI-H522 4.43 µM | SK-MEL-5 3.9 µM | SK-OV-3 27.8 µM | SNB-19 9.46 µM | SNB-75 11.9 µM | TK-10 55.8 µM | U-251 4.2 µM | UO-31 74.3 µM

C=CC(OC(C)=O)c1ccc(OC(C)=O)cc1 (stereo not given)
inactive: 786-0 1.56 µM | BT-549 8.93 µM | HL-60 3.79 µM | HOP-62 3.82 µM | HT-29 4.8 µM | Hs-578T 2.37 µM | KM12 5.57 µM | MCF7 11.4 µM | MDA-MB-231 3.3 µM | MOLT-4 3.31 µM | Malme-3M 2.92 µM | NCI-H23 17 µM | NCI-H522 1.91 µM | SK-MEL-5 15 µM | SK-OV-3 17.5 µM | SNB-19 13.9 µM | SNB-75 3.88 µM | TK-10 2.17 µM | U-251 2.3 µM | UO-31 2.1 µM
